Assay results reported in ChEMBL document CHEMBL1133244, “Solid-phase synthesis of an arylsulfone hydroxamate library” (Bioorg Med Chem Lett, 2000).
Activity calls are given as the source filed them. The calls are words filed in the database; no cut-off is given here.

How the values were obtained:
Stromelysin-1 [1] = biological target: T1, Stromelysin-1 (Homo sapiens, UniProt P08254); assay: In vitro inhibition of human recombinant Matrix metalloprotease-3.
Interstitial collagenase [2] = biological target: T2, Interstitial collagenase (Homo sapiens, UniProt P03956); assay: In vitro inhibition of human recombinant Matrix metalloprotease-1.
T2 sequence (P03956 whole entry): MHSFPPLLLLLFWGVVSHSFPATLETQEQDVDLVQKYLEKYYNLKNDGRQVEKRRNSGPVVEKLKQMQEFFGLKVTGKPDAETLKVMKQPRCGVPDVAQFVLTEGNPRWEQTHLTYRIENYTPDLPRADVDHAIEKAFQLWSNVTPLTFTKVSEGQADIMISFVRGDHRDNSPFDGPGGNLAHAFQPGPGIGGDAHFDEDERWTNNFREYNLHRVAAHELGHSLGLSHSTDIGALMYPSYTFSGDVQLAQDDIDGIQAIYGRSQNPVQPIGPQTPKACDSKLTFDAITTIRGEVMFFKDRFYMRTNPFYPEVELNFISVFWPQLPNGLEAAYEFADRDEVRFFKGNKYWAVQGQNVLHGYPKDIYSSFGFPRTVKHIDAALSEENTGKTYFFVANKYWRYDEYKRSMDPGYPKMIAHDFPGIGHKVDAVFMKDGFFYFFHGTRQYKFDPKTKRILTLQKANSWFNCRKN

[3] = In vitro for the inhibition of TNF alpha release by human peripheral blood monocytes (PBMs); format: functional
[4] = biological target: Disintegrin and metalloproteinase domain-containing protein 17 (Homo sapiens) (UniProt P78536); assay: Inhibitory activity against TACE
Sequence of Disintegrin and metalloproteinase domain-containing protein 17 (Homo sapiens) (P78536 whole entry, the tested form may be a part): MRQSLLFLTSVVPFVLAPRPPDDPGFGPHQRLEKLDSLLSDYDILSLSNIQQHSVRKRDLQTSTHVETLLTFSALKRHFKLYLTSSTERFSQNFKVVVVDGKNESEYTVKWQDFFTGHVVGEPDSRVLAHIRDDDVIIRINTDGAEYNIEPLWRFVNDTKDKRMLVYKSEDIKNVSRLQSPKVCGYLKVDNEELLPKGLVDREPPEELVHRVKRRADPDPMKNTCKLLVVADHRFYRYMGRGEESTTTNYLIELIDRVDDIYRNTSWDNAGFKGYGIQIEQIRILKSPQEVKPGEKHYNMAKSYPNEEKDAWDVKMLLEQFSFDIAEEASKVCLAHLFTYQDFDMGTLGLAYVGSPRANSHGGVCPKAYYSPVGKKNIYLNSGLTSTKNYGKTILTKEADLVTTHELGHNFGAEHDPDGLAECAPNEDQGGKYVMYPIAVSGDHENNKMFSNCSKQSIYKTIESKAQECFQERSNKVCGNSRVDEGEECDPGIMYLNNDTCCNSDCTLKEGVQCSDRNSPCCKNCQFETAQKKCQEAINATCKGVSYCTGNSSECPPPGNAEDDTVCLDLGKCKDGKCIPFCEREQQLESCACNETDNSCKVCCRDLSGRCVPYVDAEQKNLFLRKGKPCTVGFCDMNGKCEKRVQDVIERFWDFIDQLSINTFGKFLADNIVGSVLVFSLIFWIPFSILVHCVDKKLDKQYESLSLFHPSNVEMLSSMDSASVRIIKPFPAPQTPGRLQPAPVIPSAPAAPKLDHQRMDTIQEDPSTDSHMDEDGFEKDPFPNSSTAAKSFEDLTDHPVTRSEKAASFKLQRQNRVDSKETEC

[5] = biological target: T3, 72 kDa type IV collagenase (Homo sapiens, UniProt P08253)
T3 sequence (P08253 whole entry): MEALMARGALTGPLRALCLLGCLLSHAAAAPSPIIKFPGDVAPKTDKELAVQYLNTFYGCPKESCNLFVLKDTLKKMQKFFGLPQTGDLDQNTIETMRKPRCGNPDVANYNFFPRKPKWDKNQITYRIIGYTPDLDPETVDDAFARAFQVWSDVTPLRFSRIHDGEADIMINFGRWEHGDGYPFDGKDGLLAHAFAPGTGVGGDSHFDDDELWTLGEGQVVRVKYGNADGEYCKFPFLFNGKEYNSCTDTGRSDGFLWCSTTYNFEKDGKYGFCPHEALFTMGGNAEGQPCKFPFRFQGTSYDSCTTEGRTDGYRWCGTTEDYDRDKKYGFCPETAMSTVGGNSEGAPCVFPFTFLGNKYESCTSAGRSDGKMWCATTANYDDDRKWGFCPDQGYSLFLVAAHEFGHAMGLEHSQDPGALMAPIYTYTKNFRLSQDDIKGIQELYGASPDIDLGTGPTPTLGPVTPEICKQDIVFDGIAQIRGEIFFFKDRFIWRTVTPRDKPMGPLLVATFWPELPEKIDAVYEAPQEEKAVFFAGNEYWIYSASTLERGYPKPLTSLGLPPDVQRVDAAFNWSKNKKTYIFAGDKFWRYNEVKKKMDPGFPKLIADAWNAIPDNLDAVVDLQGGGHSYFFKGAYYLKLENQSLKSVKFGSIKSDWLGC
Description: In vitro inhibition of human recombinant Matrix metalloprotease-2.

Stromelysin-1 [6] = biological target: T1, Stromelysin-1; assay: Inhibitory activity against recombinant matrix metalloprotease-3
[7] = biological target: T3, 72 kDa type IV collagenase; assay: Inhibitory activity against recombinant matrix metalloprotease-2
Interstitial collagenase [8] = biological target: T2, Interstitial collagenase; assay: Inhibitory activity against recombinant matrix metalloprotease-1
[9] = biological target: Phosphodiesterase 4 (Cavia porcellus); assay: Phosphodiesterase 4 inhibitory activity measured against guinea pig macrophage homogenate

T1 sequence (P08254 whole entry): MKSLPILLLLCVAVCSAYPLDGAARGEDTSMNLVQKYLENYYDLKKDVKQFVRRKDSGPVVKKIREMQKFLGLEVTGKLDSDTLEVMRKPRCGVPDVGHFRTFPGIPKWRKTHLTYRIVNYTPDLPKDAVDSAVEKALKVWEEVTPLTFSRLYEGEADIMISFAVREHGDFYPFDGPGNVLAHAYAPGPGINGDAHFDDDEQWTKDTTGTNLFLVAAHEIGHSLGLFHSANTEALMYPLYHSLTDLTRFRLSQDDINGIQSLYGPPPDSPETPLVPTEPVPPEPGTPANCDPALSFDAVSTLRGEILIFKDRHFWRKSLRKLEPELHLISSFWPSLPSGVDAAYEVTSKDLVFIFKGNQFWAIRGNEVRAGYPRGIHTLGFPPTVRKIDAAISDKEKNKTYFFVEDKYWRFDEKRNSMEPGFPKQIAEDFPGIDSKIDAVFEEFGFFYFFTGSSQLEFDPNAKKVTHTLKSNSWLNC

| SMILES | Ki (Stromelysin-1 [1]) [nM] | Ki (Interstitial collagenase [2]) [nM] | IC50 [3] [nM] | Activity [4] | Ki [5] [nM] | IC50 (Stromelysin-1 [6]) [nM] | IC50 [7] [nM] | IC50 (Interstitial collagenase [8]) [nM] | IC50 [9] [nM] |
| --- | --- | --- | --- | --- | --- | --- | --- | --- | --- |
| COc1ccc(S(=O)(=O)C(CC(=O)NO)c2ccc(OC(C)C)cc2)cc1 (stereo not drawn) | > 10000 | > 10000 | > 10000 | inactive | > 10000 |  |  |  |  |
| COc1ccc(S(=O)(=O)C(CCCc2ccccc2)CC(=O)NO)cc1 (stereo not drawn) | 1390 | 2580 | 5000 | inactive | 44 |  |  |  |  |
| COc1ccc(S(=O)(=O)C(CCCCc2ccccc2)CC(=O)NO)cc1 (stereo not drawn) |  |  | > 10000 | inactive |  |  |  |  |  |
| COc1ccc(S(=O)(=O)C(COCc2ccccc2)CC(=O)NO)cc1 (stereo not drawn) | 1430 | > 10000 | > 10000 | inactive | 38 |  |  |  |  |
| COc1ccc(S(=O)(=O)C(CCCc2ccccc2)CC(=O)NO)cc1OC (stereo not drawn) |  |  | 9 | inactive |  | > 10000 | > 10000 | > 10000 | 14 |
| CCCCCCC(CC(=O)NO)S(=O)(=O)c1ccc(OC)cc1 (stereo not drawn) | 734 | 9590 | 1400 | inactive | 31 |  |  |  |  |
| COc1ccc(C(=O)Nc2c(Cl)cncc2Cl)cc1OC1CCCC1 |  |  | 5 |  |  |  |  |  |  |
| CCCCC(CC)C(CC(=O)NO)S(=O)(=O)c1ccc(OC)cc1 (stereo not drawn) | 184 | 357 | > 10000 | inactive | 4 |  |  |  |  |
| COc1ccc(S(=O)(=O)C(CC(=O)NO)c2ccccc2)cc1 (stereo not drawn) | 3300 | > 10000 | > 10000 | inactive |  |  |  |  |  |
| COc1ccc(S(=O)(=O)C(CCc2ccccc2)CC(=O)NO)cc1 (stereo not drawn) | 350 | 2160 | > 10000 | inactive | 43 |  |  |  |  |
| CCCCC(CC(=O)NO)S(=O)(=O)c1ccc(OC)cc1 (stereo not drawn) | 404 | 4170 | > 10000 | inactive | 30 |  |  |  |  |
| CCOC(=O)C1CCCC(C(CC(=O)NO)S(=O)(=O)c2ccc(OC)cc2)C1 (stereo not drawn) | 60 | 1010 | 4600 | inactive | 0.8 |  |  |  |  |
| COC(=O)c1ccc(C(CC(=O)NO)S(=O)(=O)c2ccc(OC)cc2)cc1 (stereo not drawn) | 4420 | 1900 | > 10000 | inactive | 88 |  |  |  |  |
| COc1ccc(S(=O)(=O)C(CCC2CCCCC2)CC(=O)NO)cc1 (stereo not drawn) | 590 | 400 | > 10000 | inactive | 36 |  |  |  |  |
| COc1ccc(S(=O)(=O)C(CCc2ccc(OCc3ccccc3)cc2)CC(=O)NO)cc1OC (stereo not drawn) |  |  |  |  |  | > 10000 | > 10000 | > 10000 | 64 |
| COc1ccc(Oc2cccc(C(CC(=O)NO)S(=O)(=O)c3ccc(OC)c(OC4CCCC4)c3)c2)cc1 (stereo not drawn) |  |  |  |  |  | > 10000 | > 10000 | > 10000 | 49 |
| COc1ccc(S(=O)(=O)C(CCCCc2ccc3c(c2)OCO3)CC(=O)NO)cc1OC (stereo not drawn) |  |  |  |  |  | > 10000 | > 10000 | > 10000 | 6.4 |
| COc1ccc(S(=O)(=O)C(CC(=O)NO)C(C)c2ccccc2)cc1 (stereo not drawn) | 300 | 1710 | > 10000 | inactive | 8 |  |  |  |  |
| COc1ccc(S(=O)(=O)C(CC(=O)NO)c2ccccc2)cc1OC (stereo not drawn) |  |  | 450 | inactive |  | > 10000 | > 10000 | > 10000 | 580 |
| CCCCCCC(CC(=O)NO)S(=O)(=O)c1ccc(OC)c(OC2CCCC2)c1 (stereo not drawn) |  |  |  |  |  | > 10000 | > 10000 | > 10000 | 9.5 |
| CCCC(CC(=O)NO)S(=O)(=O)c1ccc(OC)c(OC)c1 (stereo not drawn) |  |  |  |  |  | > 10000 | > 10000 | > 10000 | 5250 |
| COc1ccc(S(=O)(=O)C(CCc2ccccc2)CC(=O)NO)cc1OC (stereo not drawn) |  |  |  |  |  | > 10000 | > 10000 | > 10000 | 3030 |
